Data set [1] relates to Ishikawa. The experiment in a line: Antiproliferative activity against human Ishikawa cells assessed as inhibition of cell viability by CCK8 assay. The class given is functional, cell-based. In general terms: Tetrazolium dyes change colour on reduction, which living cells bring about.
Data set [2] relates to KLE. The experiment in a line: Antiproliferative activity against human KLE cells assessed as inhibition of cell viability by CCK8 assay. The class given is functional, cell-based.
Data set [3] concerns HEC-1-A. The experiment in a line: Antiproliferative activity against human Hec1A cells assessed as inhibition of cell viability by CCK8 assay. The class given is functional, cell-based.
Data set [4] has as its system HEC-1B cell line. The experiment in a line: Antiproliferative activity against human HEC1B cells assessed as inhibition of cell viability by CCK8 assay. The class given is functional, cell-based.
In data set [5] the test system is AN3-CA. The experiment in a line: Antiproliferative activity against human AN3CA cells assessed as inhibition of cell viability by CCK8 assay. The class given is functional, cell-based.
The test system of data set [6] is Ishikawa. The experiment in a line: Potency index, ratio of medroxyprogesterone acetate IC50 to test compound IC50 for antiproliferative activity against human Ishikawa cells assessed as inhibition of cell viability by CCK8 assay. The class given is functional.
Data set [7] relates to KLE. The experiment in a line: Potency index, ratio of medroxyprogesterone acetate IC50 to test compound IC50 for antiproliferative activity against human KLE cells assessed as inhibition of cell viability by CCK8 assay. The class given is functional.
The test system of data set [8] is HEC-1-A. The experiment in a line: Potency index, ratio of medroxyprogesterone acetate IC50 to test compound IC50 for antiproliferative activity against human Hec1A cells assessed as inhibition of cell viability by CCK8 assay. The class given is functional.
Data set [9] relates to HEC-1B cell line. The experiment in a line: Potency index, ratio of medroxyprogesterone acetate IC50 to test compound IC50 for antiproliferative activity against human HEC1B cells assessed as inhibition of cell viability by CCK8 assay. The class given is functional.
Data set [10] deals with AN3-CA. The experiment in a line: Potency index, ratio of medroxyprogesterone acetate IC50 to test compound IC50 for antiproliferative activity against human AN3CA cells assessed as inhibition of cell viability by CCK8 assay. The class given is functional.
Data set [11] deals with Ishikawa. The experiment in a line: Inhibition of colony formation in progesterone sensitive human Ishikawa cells. The class given is functional, cell-based.
For data set [12], the system named is KLE. The experiment in a line: Inhibition of colony formation in progesterone resistant human KLE cells. The class given is functional, cell-based.
Data set [13] deals with Ishikawa. The experiment in a line: Antimigratory activity against progesterone sensitive human Ishikawa cells assessed as inhibition of cell migration at 10 uM after 48 hrs by transwell assay. The class given is functional, cell-based.
In data set [14] the test system is KLE. The experiment in a line: Antimigratory activity against progesterone-resistant human KLE cells assessed as reduction in cell migration at 10 uM after 48 hrs by transwell assay. The class given is functional, cell-based.
Data set [15] has as its system Ishikawa. The experiment in a line: Induction of apoptosis in progesterone-sensitive human Ishikawa cells assessed as early apoptotic cells at 10 uM after 48 hrs by Annexin-V/PI staining based flow cytometry (reference value: 1.92%). The class given is functional.
In data set [16] the test system is Ishikawa. The experiment in a line: Induction of apoptosis in progesterone-sensitive human Ishikawa cells assessed as late apoptotic cells at 10 uM after 48 hrs by Annexin-V/PI staining based flow cytometry (reference value: 3.56%). The class given is functional. On the technique in general: A flow cytometer gives signals particle by particle.
In data set [17] the test system is Ishikawa. The experiment in a line: Induction of apoptosis in progesterone-sensitive human Ishikawa cells assessed as necrotic cells at 10 uM after 48 hrs by Annexin-V/PI staining based flow cytometry (reference value: 1.21%). The class given is functional.
The test system of data set [18] is Ishikawa. The experiment in a line: Induction of apoptosis in progesterone-sensitive human Ishikawa cells assessed as early apoptotic cells at 20 uM after 48 hrs by Annexin-V/PI staining based flow cytometry (reference value: 1.92%). The class given is functional.
Data set [19] concerns Ishikawa. The experiment in a line: Induction of apoptosis in progesterone-sensitive human Ishikawa cells assessed as late apoptotic cells at 20 uM after 48 hrs by Annexin-V/PI staining based flow cytometry (reference value: 3.56%). The class given is functional.
Data set [20] concerns Ishikawa. The experiment in a line: Induction of apoptosis in progesterone-sensitive human Ishikawa cells assessed as necrotic cells at 20 uM after 48 hrs by Annexin-V/PI staining based flow cytometry (reference value: 1.21%). The class given is functional.
Data set [21] has as its system KLE. The experiment in a line: Induction of apoptosis in progesterone-resistant human KLE cells assessed as early apoptotic cells at 10 uM after 48 hrs by Annexin-V/PI staining based flow cytometry (reference value: 2.85%). The class given is functional.
Data set [22] relates to KLE. The experiment in a line: Induction of apoptosis in progesterone-resistant human KLE cells assessed as late apoptotic cells at 10 uM after 48 hrs by Annexin-V/PI staining based flow cytometry (reference value: 3.56%). The class given is functional.
In data set [23] the test system is KLE. The experiment in a line: Induction of apoptosis in progesterone-resistant human KLE cells assessed as necrotic cells at 10 uM after 48 hrs by Annexin-V/PI staining based flow cytometry (reference value: 1.30%). The class given is functional.
Data set [24] concerns KLE. The experiment in a line: Induction of apoptosis in progesterone-resistant human KLE cells assessed as early apoptotic cells at 20 uM after 48 hrs by Annexin-V/PI staining based flow cytometry (reference value: 2.85%). The class given is functional.
Data set [25] has as its system KLE. The experiment in a line: Induction of apoptosis in progesterone-resistant human KLE cells assessed as late apoptotic cells at 20 uM after 48 hrs by Annexin-V/PI staining based flow cytometry (reference value: 3.56%). The class given is functional.
Data set [26] relates to KLE. The experiment in a line: Induction of apoptosis in progesterone-resistant human KLE cells assessed as necrotic cells at 20 uM after 48 hrs by Annexin-V/PI staining based flow cytometry (reference value: 1.30%). The class given is functional.
The test system of data set [27] is Ishikawa. The experiment in a line: Induction of apoptosis in progesterone-sensitive human Ishikawa cells after 48 hrs by Annexin-V/PI staining based flow cytometry. The class given is functional, cell-based.
Data set [28] has as its system KLE. The experiment in a line: Induction of apoptosis in progesterone-resistant human KLE cells after 48 hrs by Annexin-V/PI staining based flow cytometry. The class given is functional, cell-based.
The target in data set [29] is RAC-alpha serine/threonine-protein kinase (Homo sapiens) (UniProt P31749). The experiment in a line: Inhibition of AKT phosphorylation at ser 473 residue in human Ishikawa cells at 20 uM after 48 hrs by Western blot analysis. The class given is cell-based. In general terms: A western blot detects proteins with antibodies after separation by electrophoresis.
Chain of RAC-alpha serine/threonine-protein kinase (Homo sapiens) (P31749 whole entry): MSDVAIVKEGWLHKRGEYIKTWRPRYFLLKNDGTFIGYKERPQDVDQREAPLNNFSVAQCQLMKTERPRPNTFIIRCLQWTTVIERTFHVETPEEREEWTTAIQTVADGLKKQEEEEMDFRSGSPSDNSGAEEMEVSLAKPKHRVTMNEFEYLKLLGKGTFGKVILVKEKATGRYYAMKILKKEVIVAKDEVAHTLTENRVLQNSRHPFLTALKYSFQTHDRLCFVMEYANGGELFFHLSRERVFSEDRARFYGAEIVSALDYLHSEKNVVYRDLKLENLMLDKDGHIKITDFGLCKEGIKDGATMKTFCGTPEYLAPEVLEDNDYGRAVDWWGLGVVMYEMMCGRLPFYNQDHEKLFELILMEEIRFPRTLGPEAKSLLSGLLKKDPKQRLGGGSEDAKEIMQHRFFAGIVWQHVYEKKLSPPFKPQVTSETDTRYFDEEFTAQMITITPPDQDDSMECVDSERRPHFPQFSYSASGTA
Data set [30] shares this target. The experiment in a line: Inhibition of AKT phosphorylation at ser 473 residue in human KLE cells at 20 uM after 48 hrs by Western blot analysis. The class given is cell-based.
The test system of data set [31] is Ishikawa. The experiment in a line: Antitumor activity against human Ishikawa cells xenografted in mouse assessed as tumor growth inhibition at 3 mg/kg measured after 28 days relative to control. The class given is functional. Conditions: 672 h, read-out: GI.
Data set [32] relates to Ishikawa. The experiment in a line: Antitumor activity against human Ishikawa cells xenografted in mouse assessed as tumor growth inhibition at 15 mg/kg measured after 28 days relative to control. The class given is functional. Conditions: 672 h, read-out: GI.
Data set [33] can be described thus: Toxicity in mouse xenografted with human Ishikawa cells assessed as effect on body weight at 3 to 15 mg/kg after 28 days. The class given is organism-based. As to conditions: in vivo, 672 h.
Data set [34] deals with Ishikawa. The experiment in a line: Inhibition of colony formation in progesterone sensitive human Ishikawa cells at 20 to 30 uM. The class given is functional, cell-based.
The test system of data set [35] is Ishikawa. The experiment in a line: Antitumor activity against human Ishikawa cells xenografted in mouse assessed as tumor growth inhibition at 30 mg/kg measured after 28 days relative to control. The class given is functional. Conditions: 672 h, read-out: GI.

Activity calls are given as the source filed them. The rule behind the calls is not given here. Some results are limits rather than exact numbers.

On to `OCCN1CCN(CCCN2c3ccccc3Sc3ccc(Cl)cc32)CC1` [PERPHENAZINE], for which the 50% inhibitory concentration (IC50) – broadly, the concentration needed to halve the response being measured – in the data set on Ishikawa [1] amounted to 19.4 µM; in the data set on KLE [2] it was 30.8 µM; in the data set on HEC-1-A [3] it was 23.3 µM; in the data set with HEC-1B cell line [4] it was 29.8 µM; in the data set with AN3-CA [5], 25.4 µM. In addition, the “Ratio IC50” value is reported as 1.9 in the data set with Ishikawa [6]; >2.6 in the data set with KLE [7]; 2.2 with HEC-1-A [8]; 2 with HEC-1B cell line [9]; 1.5 in the data set with AN3-CA [10]. The inhibition entry with Ishikawa [11] and in the data set on KLE [12] was “Dose-dependent effect” in each case. In addition, the inhibition result (in the data set on Ishikawa [13]; in [29]; in data set [30]) was “Active” each time. The outcome in the data set with KLE [14] was Active. The Activity worked out at 6.9% in the data set on Ishikawa [15]; 7.4% with Ishikawa [16]; 2.64% in the data set on Ishikawa [17]; 6.76% in the data set with Ishikawa [18]; 12.52% with Ishikawa [19]; 2.68% in the data set on Ishikawa [20]. The Activity in the data set on KLE [21] is on record as 4.33%; in the data set on KLE [22], 7.88%; in the data set on KLE [23], 5.45%; in the data set on KLE [24], 6.07%; in the data set on KLE [25] it was 11.41%; in the data set with KLE [26] it was 2.68%. The Activity result is “Dose-dependent effect” in the data set on Ishikawa [27], “Dose-dependent effect” in the data set with KLE [28] and “Non-Toxic” in data set [33]. Further, the inhibition in vivo at 3 mg/kg with Ishikawa [31] was 58.1%. The inhibition in vivo at 15 mg/kg in the data set with Ishikawa [32] was found to be 79.9%.

`CC(=O)O[C@]1(C(C)=O)CC[C@H]2[C@@H]3C[C@H](C)C4=CC(=O)CC[C@]4(C)[C@H]3CC[C@@]21C` [MEDROXYPROGESTERONE ACETATE]: the IC50 in the data set on Ishikawa [1] was 37 µM; with KLE [2], > 80 µM; in the data set with HEC-1-A [3], 51.8 µM; in the data set with HEC-1B cell line [4], 60.4 µM; in the data set on AN3-CA [5], 37.1 µM. For the same molecule, the inhibition entry in the data set on Ishikawa [34] and in the data set with Ishikawa [13] was “Active” each time. Also, the result with KLE [14] was inactive. Besides, the inhibition in vivo at 30 mg/kg in the data set with Ishikawa [35] was 22.6%.

(Values after ChEMBL document CHEMBL4622903, “Repurposing of antipsychotics perphenazine for the treatment of endometrial cancer” (Bioorg Med Chem Lett, 2020).)
